Earlier results, collected in patent US20260085040A1, “AMINO ACID AND CA[…] DERIVATIVES” (priority 2022, published 2026).

Key:
[1] = controlled clinical environment, subjects with OCD
[2] = 10 patients with alcohol dependence per DSM-IV

For CN(C)CCc1c[nH]c2cccc(OP(=O)(O)O)c12 [psilocybin], the “Participants with biologically verified 7-day point-prevalence abstinence” value (6-month follow up) is given as “eighty”, the “Participants biologically verified as being abstinent” value (12-month follow-up) is given as 67% and the Participants abstinent (follow-up 2.5 years after the target quit date) is given as 75%. For the same compound, the “Core OCD symptoms” value [1] was “acute reductions in core OCD symptoms in several subjects”, the Safety of administration [1] was “safely administered” and the “Alcohol use post psilocybin administration” value [2] was “significant decrease in alcohol use”.
